IC50, EC50 and selectivity ratio data for 16 compounds are collected here from ChEMBL document CHEMBL1153288, “1,3,4-Oxadiazole substituted naphthyridines as HIV-1 integrase inhibitors. Part 2: SAR of the C5 position” (Bioorg Med Chem Lett, 2009).

The nature of data set [1]: Inhibition of recombinant HIV integrase strand transfer activity. Further details: species or system Human immunodeficiency virus.
For data set [2], the system named is Human immunodeficiency virus. In words: Antiviral activity against G-pseudotyped HIV expressed in 293T cells with pGI3Luci. The settings on record: Human immunodeficiency virus 1, HEK-293T. It is filed as functional, organism-based.
Data set [3] can be described thus: Therapeutic index, CC50 for human 293T cells to EC50 for G-pseudotyped HIV. It counts as cell-based. The settings on record: read-out: Ratio CC50/EC50.

A word on the IC50: it is the midpoint of a concentration-inhibition curve. The term EC50 denotes the concentration that produces a half-maximal response. Higher therefore signals weaker potency. With `O=C1CNCCN1c1nc(-c2nnc(Cc3ccc(F)cc3)o2)c(O)c2ncccc12`, the concentration for half-maximal inhibition (IC50) in data set [1] was 0.038 µM. The same compound returned an EC50 in data set [2] of 0.24 µM. In addition, in data set [3], the selectivity ratio turned out to be 58.

For `O=C1CCCCN1c1nc(-c2nnc(Cc3ccc(F)cc3)o2)c(O)c2ncccc12`, in data set [1], the IC50 was 0.088 µM. The EC50 in data set [2] stood at 0.087 µM. For the same compound, the selectivity ratio in data set [3] was more than 160.

In the case of `Oc1c(-c2nnc(Cc3ccc(F)cc3)o2)nc(-c2ccncc2)c2cccnc12`, the IC50 in data set [1] is 0.008 µM. The compound further returned an EC50 in data set [2] of 0.035 µM. The selectivity ratio in data set [3] amounted to 200.

As to `CNC(=O)c1ccc(-c2nc(-c3nnc(Cc4ccc(F)cc4)o3)c(O)c3ncccc23)cc1`, the IC50 in data set [1] worked out at 0.004 µM. In data set [2], the midpoint of the response, the EC50, lay at 0.012 µM. Moreover, in data set [3], the selectivity ratio was 780.

As for `CS(=O)(=O)c1ccc(-c2nc(-c3nnc(Cc4ccc(F)cc4)o3)c(O)c3ncccc23)cc1`, in data set [1], the IC50 turned out to be 0.009 µM. In data set [2], this compound registered an EC50 of 0.008 µM. For the same compound, the selectivity ratio in data set [3] stood at 301.

Turning to `CNS(=O)(=O)c1ccccc1-c1nc(-c2nnc(Cc3ccc(F)cc3)o2)c(O)c2ncccc12`, the IC50 in data set [1] stood at 0.004 µM. Also, the EC50 in data set [2] is 0.022 µM. Further, the selectivity ratio in data set [3] is 173.

Turning to `Nc1cccc(-c2nc(-c3nnc(Cc4ccc(F)cc4)o3)c(O)c3ncccc23)c1`, the IC50 in data set [1] stood at 0.015 µM. The compound also came in with an EC50 in data set [2] of 0.015 µM. Moreover, the selectivity ratio in data set [3] was 546.

Regarding `O=C(c1nc(-c2nnc(Cc3ccc(F)cc3)o2)c(O)c2ncccc12)N1CCOCC1`, in data set [1], the IC50 amounted to 0.13 µM. In addition, the EC50 in data set [2] is 0.097 µM. For the same compound, in data set [3], the selectivity ratio was determined as 134.

Turning to `CN(C)C(=O)C(=O)N(C)c1nc(-c2nnc(Cc3ccc(F)cc3)o2)c(O)c2ncccc12`, in data set [1], the IC50 came to 0.085 µM. The compound also returned an EC50 in data set [2] of 0.31 µM. Besides, the selectivity ratio in data set [3] was more than 40.

Regarding `O=C1CN(c2nc(-c3nnc(Cc4ccc(F)cc4)o3)c(O)c3ncccc23)CCN1`, the IC50 in data set [1] was 0.007 µM. Besides, the EC50 in data set [2] came out at 0.017 µM. Moreover, the selectivity ratio in data set [3] came out at 844.

In the case of `N#Cc1ccc(-c2nc(-c3nnc(Cc4ccc(F)cc4)o3)c(O)c3ncccc23)cc1`, in data set [1], the IC50 came out at 0.015 µM. This compound yielded an EC50 in data set [2] of 0.026 µM. The selectivity ratio in data set [3] is 72.

As for `CN(C)S(=O)(=O)Nc1nc(-c2nnc(Cc3ccc(F)cc3)o2)c(O)c2ncccc12`, the IC50 in data set [1] worked out at 0.015 µM. The same compound showed an EC50 in data set [2] of 0.084 µM. Moreover, in data set [3], the selectivity ratio came to 127.

For `CC(C)NC(=O)c1ccc(-c2nc(-c3nnc(Cc4ccc(F)cc4)o3)c(O)c3ncccc23)cc1`, in data set [1], the IC50 was determined as 0.004 µM. For the same compound, the EC50 in data set [2] came out at 0.013 µM. Moreover, in data set [3], the selectivity ratio is 95.

For `Oc1c(-c2nnc(Cc3ccc(F)cc3)o2)nc(-c2ccccn2)c2cccnc12`, the IC50 in data set [1] was 0.03 µM. This compound also gave an EC50 in data set [2] of 0.056 µM. Further, in data set [3], the selectivity ratio came out at 40.

For the compound `O=C(O)c1nc(-c2nnc(Cc3ccc(F)cc3)o2)c(O)c2ncccc12`, the IC50 in data set [1] turned out to be 0.86 µM. In addition, in data set [2], the EC50 is 4.4 µM. In addition, in data set [3], the selectivity ratio was more than 3.

For the compound `O=C(c1nc(-c2nnc(Cc3ccc(F)cc3)o2)c(O)c2ncccc12)N1CCC(O)CC1`, in data set [1], the IC50 was determined as 0.027 µM. The EC50 in data set [2] was determined as 0.22 µM. Further, the selectivity ratio in data set [3] is more than 65.
